These results are taken from patent US7371571B2, “Recombinant mycobacteria overexpressing D-alanine ligase gene and uses therefore” (priority 2002, dated 2008).

SMILES strings stand for the structures. Values after ≈ are worked out from the molar mass of the structure shown. Values joined by “and” are separate entries in the source; they are usually repeats but may differ in a detail not shown here. Identical values can stand only once. “Also recorded” adds a separate entry of the source. Like-named read-outs stand apart in the source and are kept apart here.

For assay [1], the system named is M. smegmatis strains. Kind of assay: Drug susceptibility compared across strains. The class given is cell-based, Mycobacterium smegmatis. The following applies: mc^2155, GPM259, GPM265, GPM14.
The test system of assay [2] is M. smegmatis GPM260 (overproducing both Alr and Ddl). In words: MIC by microdilution method. It counts as cell-based, Mycobacterium smegmatis. The settings on record: for MIC: Mycolicibacterium smegmatis, M-ADC-TW, 48 h; for susceptibility of GPM260 compared with parent strain GPM14 / MIC: strain GPM260. Here is the method:
(§1) MICs were determined by a microdilution method described previously (Takiff et al., 1996) with minor modifications. Briefly, M. smegmatis cells were grown in M-ADC-TW to mid-exponential phase (optical density at 600 nm, 0.6 to 1.0). Approximately 10^5 CFU in 0.1 ml were inoculated in triplicate onto 96-well microplates containing serial twofold dilutions of inhibitory compounds. Plates were incubated at 37° C. and examined daily. The MIC was defined as the minimal concentration of the drug or inhibitor that prevented visible bacterial growth after 48 h. Each MIC represents the consistent result from at least three independent cultures. Amikacin, DCS, βCDA, ethambutol, and vancomycin (all from Sigma) were prepared in sterile deionized water. Rifabutin (Amersham Pharmacia) was prepared in dimethyl sulfoxide (Fisher Scientific, St. Louis, Mo.). All further dilutions of each antibiotic were prepared in growth medium. Inhibition of colony formation by DCS was evaluated as described previously in Caceres et al., (1997), which is incorporated herein by reference. Appropriate dilutions of exponentially growing M. smegmatis cells were plated onto agar containing 0 to 1,200 μg of DCS ml^−1. Colonies were counted after 5 days of incubation at 37° C. Statistical analysis was conducted using the SAS general linear model procedure (SAS Institute, Cary, N.C.).
(Broth dilution looks for growth in wells or tubes with falling amounts of substance.)

Assay [3] deals with M. smegmatis GPM265 (overproducing M. tuberculosis Ddl). Kind of assay: microbe, parasite or virus in culture. It counts as cell-based, Mycobacterium smegmatis. The following applies: for MIC: Mycolicibacterium smegmatis, 48 h.
Assay [4] relates to M. smegmatis mc^2155. Kind of assay: MIC by microdilution method. The class given is cell-based, Mycobacterium smegmatis.
In the next assay the test system is M. smegmatis GPM2. Kind of assay: MIC by microdilution method. The following applies: Mycolicibacterium smegmatis. It counts as cell-based, Mycobacterium smegmatis.
Assay [5] concerns M. smegmatis GPM14 (overproducing Alr). Kind of assay: MIC by microdilution method. It counts as cell-based, Mycobacterium smegmatis. The settings on record: for MIC: Mycolicibacterium smegmatis, 48 h. On the procedure:
as §1

The subject of assay [6] is M. smegmatis GPM259 (overproducing Ddl). Kind of assay: MIC by microdilution method. The class given is cell-based, Mycobacterium smegmatis. The settings on record: for MIC: Mycolicibacterium smegmatis, 48 h. On the procedure:
as §1

Assay [7] has as its system M. smegmatis mc^2155. Kind of assay: Intracellular alanine pools by reverse-phase HPLC. The following applies: 75 μg ml^−1 DCS, 2 h.
Experimental: M. smegmatis cells were grown in minimal medium until exponential phase and split into two subcultures, and DCS was added to a final concentration of 75 μg ml^−1 to one of the subcultures. After 2 h of incubation, cells were harvested at 4° C. by centrifugation, washed twice with ice-cold double-distilled water, and concentrated 50-fold. Cells were sonicated in a salt-ice-water bath with a Vibra-Cell model VC600 sonicator (Sonic and Materials, Inc., Danbury, Conn.) for 10 min at 80% power output and 50% duty cycle. The lysate was centrifuged at 4° C. for 30 min at 30,000×g to remove bacterial debris. Protein was removed from the supernatant by serial passages through YM-10 and YM-3 Centricon concentrators (Millipore Corp., Bedford, Mass.). Determination of the abundance of individual amino acids was performed at the Amino Acid Geochronology Laboratory of Northern Arizona University (Flagstaff, Ariz.) by a reverse-phase high-performance liquid chromatography (HPLC) procedure described previously (Kaufman and Manley, 1998). This procedure is able to detect nine pairs of L- and D-amino acids in the subpicomole range. […] Thus, the abundance of each amino acid was calculated as the area under the corresponding peak and expressed relative to this pool.
Another assay deals with Alr. The following applies: Streptococcus faecalis purified Alr; cited from earlier work.
The test system of a further assay is M. smegmatis GPM14. In words: Intracellular alanine pools by reverse-phase HPLC. The settings on record: 75 μg ml^−1 DCS, 2 h.
For assay [8], the system named is M. smegmatis strains. Kind of assay: Inhibition of colony formation on agar. It counts as cell-based, Mycobacterium smegmatis. The following applies: agar with 0 to 1,200 μg of DCS ml^−1, 5 days. On the procedure:
as §1

The next assay has as its system M. smegmatis GPM259. Kind of assay: Intracellular alanine pools by reverse-phase HPLC. The following applies: 75 μg ml^−1 DCS, 2 h.
For the next assay, the target named is M. smegmatis Ddl (Mycolicibacterium smegmatis, UniProt Q9ZGN0). It counts as biochemical, Mycobacterium smegmatis.
The target of the next assay is T1, Ddl (UniProt Q47758).
T1 sequence (Q47758 1-348): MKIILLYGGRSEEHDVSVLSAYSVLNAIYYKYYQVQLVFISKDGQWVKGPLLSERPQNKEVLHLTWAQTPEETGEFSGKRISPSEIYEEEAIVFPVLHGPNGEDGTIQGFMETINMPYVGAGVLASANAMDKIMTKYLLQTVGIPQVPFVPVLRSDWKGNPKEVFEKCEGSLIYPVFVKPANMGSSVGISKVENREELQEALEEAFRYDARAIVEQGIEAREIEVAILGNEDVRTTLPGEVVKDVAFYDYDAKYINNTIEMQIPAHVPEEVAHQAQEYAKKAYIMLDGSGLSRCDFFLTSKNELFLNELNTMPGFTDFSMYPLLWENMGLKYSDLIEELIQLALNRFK
The following applies: Streptococcus faecalis purified Ddl; cited from earlier work.

The target in another assay is T2, M. tuberculosis Ddl (Mycobacterium tuberculosis, UniProt P9WP31).
T2 sequence (P9WP31 1-373): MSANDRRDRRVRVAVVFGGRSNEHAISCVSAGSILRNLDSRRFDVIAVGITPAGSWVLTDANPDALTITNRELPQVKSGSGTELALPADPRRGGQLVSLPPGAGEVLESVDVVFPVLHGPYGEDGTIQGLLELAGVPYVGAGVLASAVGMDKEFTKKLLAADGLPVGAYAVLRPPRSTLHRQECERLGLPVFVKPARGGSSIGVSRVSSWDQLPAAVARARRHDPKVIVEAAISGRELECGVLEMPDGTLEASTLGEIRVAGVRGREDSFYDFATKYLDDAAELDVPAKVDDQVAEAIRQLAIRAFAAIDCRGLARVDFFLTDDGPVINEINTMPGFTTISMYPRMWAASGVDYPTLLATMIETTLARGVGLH
The class given is biochemical.

The next assay concerns M. smegmatis GPM260. Kind of assay: Intracellular alanine pools by reverse-phase HPLC. The following applies: 75 μg ml^−1 DCS, 2 h.

M. smegmatis Ddl, sequence (Q9ZGN0 whole entry): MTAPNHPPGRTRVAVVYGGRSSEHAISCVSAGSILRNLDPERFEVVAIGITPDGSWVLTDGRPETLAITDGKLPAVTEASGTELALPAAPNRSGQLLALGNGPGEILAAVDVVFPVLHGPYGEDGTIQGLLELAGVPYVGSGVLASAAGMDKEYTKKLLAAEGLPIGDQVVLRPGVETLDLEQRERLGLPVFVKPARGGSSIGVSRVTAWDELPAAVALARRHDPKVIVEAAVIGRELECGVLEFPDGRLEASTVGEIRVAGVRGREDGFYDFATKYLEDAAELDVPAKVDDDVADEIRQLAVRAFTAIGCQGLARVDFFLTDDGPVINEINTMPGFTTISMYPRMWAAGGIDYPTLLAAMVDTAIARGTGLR

Consider `CO[C@H]1/C=C/O[C@@]2(C)Oc3c(C)c(O)c4c(c3C2=O)C2=NC3(CCN(CC(C)C)CC3)NC2=C(NC(=O)/C(C)=C\C=C\[C@H](C)[C@H](O)[C@@H](C)[C@@H](O)[C@@H](C)[C@H](OC(C)=O)[C@@H]1C)C4=O` [rifabutin], for which the “susceptibilities of strains overproducing Alr and/or Ddl compared with wild type” value (from here on “susceptibilities … compared with wild type”) with M. smegmatis strains [1] is on record as “identical”. Moreover, the “susceptibility of GPM260 compared with parent strain GPM14” value in assay [2] is “identical”.
Take `CC[C@@H](CO)NCCN[C@@H](CC)CO` [ethambutol]: in the assay with M. smegmatis strains [1], the “susceptibilities … compared with wild type” value is recorded as “identical”. Also, in assay [2], the “susceptibility of GPM260 compared with parent strain GPM14” value is “identical”.
Consider `N[C@H](CCl)C(=O)O` [βCDA, β-chloro-D-alanine], for which the MIC was 25 µg/mL (≈ 202 µM) in assay [3]; 25 µg/mL (≈ 202 µM) with M. smegmatis mc^2155 [4] (Mycolicibacterium smegmatis, MC^2155, 48 h); 25 µg/mL (≈ 202 µM) against M. smegmatis GPM2 (GPM2, 48 h); 100 µg/mL (≈ 809 µM) in [5]; 100 µg/mL (≈ 809 µM) in assay [2]; 25 µg/mL (≈ 202 µM) in assay [6] (strain GPM259, M-ADC-TW, read-out: MIC). Also, the “MIC relative to those for strains with wild-type levels of Alr” value in assay [5] (strain GPM14) is on record as “fourfold higher”. Moreover, in assay [2], the “susceptibility of GPM260 compared with parent strain GPM14” value is “identical”.
`NCC[C@H](O)C(=O)N[C@@H]1C[C@H](N)[C@@H](O[C@H]2O[C@H](CN)[C@@H](O)[C@H](O)[C@H]2O)[C@H](O)[C@H]1O[C@H]1O[C@H](CO)[C@@H](O)[C@H](N)[C@H]1O` [amikacin]: the “susceptibilities … compared with wild type” value in the assay on M. smegmatis strains [1] was “identical”. Further, the “susceptibility of GPM260 compared with parent strain GPM14” value in assay [2] was “identical”.
As a reminder, the Ki is the dissociation constant of the complex between target and ligand, obtained from inhibition or displacement. For the molecule `NC1CONC1=O` (stereo not drawn) [DCS, 4-amino-3-isoxazolidinone], the “excess of L- over D-alanine” value was “eightfold” with M. smegmatis mc^2155 [7] and “three-fold” in the assay on M. smegmatis GPM14. The “increase of L-alanine-to-D-alanine molar ratio” value in the assay on M. smegmatis mc^2155 [7] (versus untreated) was found to be 3.5 fold. Further, the “MIC relative to that for mc^2155” value in assay [3] and in assay [6] (strain GPM259) was “twofold greater” throughout. Further, the MIC in assay [3] turned out to be 150 µg/mL (≈ 1470 µM); in the assay with M. smegmatis mc^2155 [4] (Mycolicibacterium smegmatis, strain mc^2155, M-ADC-TW, 48 h, read-out: MIC), 75 µg/mL (≈ 735 µM); in the assay on M. smegmatis mc^2155 [4] (strain mc^2155, M-ADC-TW, 48 h), 75.0 µg/mL (≈ 735 µM); in the assay with M. smegmatis GPM2 (strain GPM2, M-ADC-TW, 48 h, read-out: MIC), 75 µg/mL (≈ 735 µM); in [5], 300 µg/mL (≈ 2940 µM); in assay [2], 600 µg/mL (≈ 5880 µM). Also, the MIC in assay [6] is 150 µg/mL (≈ 1470 µM). Besides, the figures for the Ki on Alr and on Ddl were 20 µM and 900 µM, respectively. Moreover, the level of resistance entry in assay [2] (strain overexpressing both the alr and ddl genes) was “eightfold-higher”. Also, the “resistance of GPM259 and GPM265 on solid agar” value with M. smegmatis strains [8] is given as “more resistant to DCS than the wild-type mc^2155 but less resistant than the Alr-overproducing strain GPM14”. Further, the “excess of L-alanine” value is 18- to 20 fold and ~20 fold in the assay on M. smegmatis GPM259; 18- to 20 fold and ~20 fold with M. smegmatis GPM260. The molecule also had a Ddl activity inhibited at M. smegmatis Ddl of 10 to 15%. Besides, on M. smegmatis Ddl, the “Ddl enzyme activity inhibited” value was “Approximately 50%”. Also, the “inhibition of Ddl enzyme” value on M. smegmatis Ddl and at M. tuberculosis Ddl was “inhibited by DCS in a concentration-dependent manner” each time. Further, the “percentage of inhibition higher than in mc^2155 and GPM259 extracts” value at M. tuberculosis Ddl is listed as “approximately 10%”.
Take `CN[C@H](CC(C)C)C(=O)N[C@H]1C(=O)N[C@@H](CC(N)=O)C(=O)N[C@H]2C(=O)N[C@H]3C(=O)N[C@H](C(=O)N[C@H](C(=O)O)c4cc(O)cc(O)c4-c4cc3ccc4O)[C@H](O)c3ccc(c(Cl)c3)Oc3cc2cc(c3O[C@@H]2O[C@H](CO)[C@@H](O)[C@H](O)[C@H]2O[C@H]2C[C@](C)(N)[C@H](O)[C@H](C)O2)Oc2ccc(cc2Cl)[C@H]1O` [vancomycin]: the “susceptibilities … compared with wild type” value with M. smegmatis strains [1] is listed as “does not have an effect on the susceptibility; also recorded: identical”. Besides, the “susceptibility of GPM260 compared with parent strain GPM14” value in assay [2] is on record as “identical”.
